For the test, the system named is BaF3 V617F cells; UKE-1. Nature of the test: Proliferation Assay (Cell Titer-Glo; Example 7). It is filed as cell-based. To be noted: proliferation 72 hours, inhibit JAK2 activity, cell line (BaF3 V617F or UKE-1) not stated. The method, boiled down: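 Proliferation IC50s reflect 72 h compound exposure at 37 °C, read by Cell Titer-Glo luminescence. Compound was serially diluted 3-fold from a 5 mM DMSO stock and added as a 2× solution; BaF3 V617F cells were grown in RPMI/10% FBS, UKE-1 in Iscove's DMEM with FBS, equine serum and hydrocortisone.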
On the technique in general: Cellular ATP, detected with luciferase, serves as a proxy for viable cell number.
As for `CCc1cnc(Nc2cc(C)c(OC)c(Cl)c2)nc1Nc1ccc(CNS(=O)(=O)C2CC2)cc1` [II-83, N2-(3-Chloro-4-methoxy-5-methylphenyl)-N4-[4-(N-cyclopropylsulfonylamino)methylphenyl]-5-ethyl-2,4-pyrimidinediamine], the IC50 (as a rule, the concentration needed to halve the response being measured) is 1390 nM.
`Cc1cnc(Nc2ccc(C3=NCCN3)cc2)nc1Nc1ccc2c(c1)C(NS(=O)(=O)C1CC1)CC2` (racemic) [V-6, (+/−)-N4-[1-(Cyclopropylsulfonylamino)indan-6-yl]-N2-[4-(4,5-dihydro-1H-imidazol-2-yl)phenyl]-5-methyl-2,4-pyrimidinediamine] registered an IC50 of 1120 nM.
With `CCS(=O)(=O)N1CCc2cc(Nc3nc(Nc4cc(C)c(OC)c(C)c4)ncc3F)ccc2C1` [VIII-10, N4-[(N-ethylsulfonyl)-1,2,3,4-tetrahydroisoquinolin-6-yl]-N2-(3,5-dimethyl-4-methoxy)phenyl-5-fluoro-2,4-pyrimidinediamine] the figure was 716 nM; with `COc1cc(C)c(Nc2ncc(C)c(Nc3ccc(CCNS(=O)(=O)C4CC4)cc3)n2)c(C)c1` [II-62], 438 nM.
With `CCCOc1c(C)cc(Nc2ncc(Cl)c(Nc3ccc(CNS(=O)(=O)C4CC4)cc3)n2)cc1C` [II-221, 5-Chloro-N4-[4-(N-cyclopropylsulfonylamino)methylphenyl]-N2-[3,5-dimethyl-4-(1-propoxy)phenyl]-2,4-pyrimidinediamine] the figure was 238 nM; with `CN1CCN(c2ccncc2Nc2ncc(Cl)c(Nc3ccc4c(c3)S(=O)(=O)NCC4)n2)CC1` [VII-3, 5-Chloro-N4-[3,4-dihydro-1,1-dioxide-2H-1,2-benzothiazin-7-yl]-N2-[4-(N-methylpiperizin-4-yl)pyridine-3-yl]-2,4-pyrimidinediamine], 1170 nM.
With “5-Chloro-N4-[3,4-dihydro-1,1-dioxide-2H-1,2-benzothiazin-7-yl]-N2-[4-(N-methylpiperizin-4-yl)phenyl]-2,4-pyrimidinediamine [VII-5]” the figure was 13200 nM; with `Cc1cnc(Nc2cncc(C)c2N2CCN(C)CC2)nc1Nc1ccc(CNS(=O)(=O)C2CC2)cc1` [II-224, 5-Methyl-N4-[4-(N-cyclopropylsulfonylamino)methylphenyl]-N2-[5-methyl-4-(N-methylpiperizin-4-yl)pyridin-3-yl]-2,4-pyrimidinediamine], 848 nM; with `COc1c(C)cc(Nc2ncc(C)c(Nc3ccc4c(c3)C(NS(=O)(=O)C3CC3)CC4)n2)cc1C` (racemic) [V-7, (+/−)-N4-[1-(Cyclopropylsulfonylamino)indan-6-yl]-N2-(3,5-dimethyl-4-methoxyphenyl)-5-methyl-2,4-pyrimidinediamine], 1600 nM.
`CCc1cnc(Nc2ccc(C3CCN(C)CC3)cc2)nc1Nc1ccc(CNS(=O)(=O)C2CC2)cc1` [II-88, N4-[4-(N-Cyclopropylsulfonylamino)methylphenyl]-5-ethyl-N2-[4-(1-methyl-4-piperidinyl)pheny]-2,4-pyrimidinediamine] yielded a half-inhibitory concentration (IC50) of 833 nM.
Consider `CN1CCN(c2ccc(Nc3ncc(Cl)c(Nc4ccc(CNS(N)(=O)=O)cc4)n3)cc2)CC1` [II-148, N4-[4-(Aminosulfonylamino)methylphenyl]-5-chloro-N2-[4-(4-methyl-1-piperazinyl)phenyl]-2,4-pyrimidinediamine], for which half-maximal inhibition (IC50) required 1320 nM.
As to `Cc1cc(Nc2ncc(C)c(Nc3ccc(CNS(=O)(=O)C4CC4)cc3)n2)ccc1N1C[C@@H]2C[C@H]1CN2C` [II-184, N4-[4-(N-Cyclopropylsulfonylamino)methylphenyl]-5-methyl-N2-[3-methyl-4-[(1S,4S)-5-methyl-2,5-diazabicyclo[2.2.1]hept-2-yl]phenyl]-2,4-pyrimidinediamine], the IC50 came out at 892 nM.

(Values after patent publication US8304422B2, “Compositions and methods for inhibition of the JAK pathway” (Rigel Pharmaceuticals, Inc., priority 2007, dated 2012).)
